45 compounds from patent publication US7868005B2, “Pyrazinyl substituted piperazine-piperidines with CXCR3 antagonist activity” (Schering Corporation, priority 2005, dated 2011) can be followed below.

SMILES strings stand for the structures. A value given as a limit tells only on which side of the number the result lay.

For orientation: IC50 means the midpoint of a concentration-inhibition curve.

The target of the assay is T1, human CXCR3 (N-delta 4) (Homo sapiens, UniProt P49682).
T1 construct: CD8 leader (N); Flag; expressed in transfected cells; membranes prepared
T1 sequence (P49682 5-368 limits assumed): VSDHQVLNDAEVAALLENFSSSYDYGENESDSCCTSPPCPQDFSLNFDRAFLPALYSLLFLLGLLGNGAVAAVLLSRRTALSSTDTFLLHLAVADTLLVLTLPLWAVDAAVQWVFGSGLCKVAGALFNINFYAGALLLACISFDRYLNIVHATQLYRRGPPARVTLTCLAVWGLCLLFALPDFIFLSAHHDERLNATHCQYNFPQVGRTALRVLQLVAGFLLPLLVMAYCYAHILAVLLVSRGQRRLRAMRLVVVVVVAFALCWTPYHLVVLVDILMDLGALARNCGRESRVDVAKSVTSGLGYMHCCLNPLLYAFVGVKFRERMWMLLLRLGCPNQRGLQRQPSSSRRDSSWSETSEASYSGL
The assay is described as follows: Human CXCR3 (N-delta 4) Scintillation Proximity Assay (SPA), [125I] IP-10 binding to Ba/F3-hCXCR3 membranes. As to conditions: IC50 rating, Table 1; read-out: IC50. The source says:
The inventive compounds can readily be evaluated to determine activity at the CXCR3 receptors by known methods, such as, for example, development of a human CXCR3 (N-delta 4) Binding Assay.
Cloning and Expression of Human CXCR3 (N-delta 4):
The DNA encoding human CXCR3 was cloned by PCR using human genomic DNA (Promega, Madison, Wis.) as a template. The PCR primers were designed based on the published sequence of human orphan receptor GPR9 (1) with incorporated restriction sites, a Kozak consensus sequence, CD8 leader and Flag tag. The PCR product was subcloned into the mammalian expression vector pME18Sneo, a derivative of the SR-alpha expression vector (designated as pME18Sneo-hCXCR3 (N-delta 4).
IL-3-dependent mouse pro-B cells Ba/F3 were transfected by electroporation in 0.4 ml Dulbecco's PBS containing 4×10^6 cells with 20 μg of pME18Sneo-hCXCR3 (N-delta 4) plasmid DNA. Cells were pulsed at 400 Volts, 100 OHMs, 960 μFd. The transfected cells were under selection with 1 mg/ml G418 (Life Technologies, Gaithersburg, Md.). G418-resistant Ba/F3 clones were screened for CXCR3 expression by specific binding of [^125I] IP-10 (NEN Life Science Products, Boston, Mass.).
Preparation of Ba/F3-hCXCR3 (N-delta 4) Membranes:
Ba/F3 cells expressing human CXCR3 (N-delta 4) were pelleted and resuspended in the lysis buffer containing 10 mM HEPES, pH 7.5 and Complete® protease inhibitors (1 tablet per 100 ml) (Boehringer Mannheim, Indianapolis, Ind.) at a cell density of 20×10^6 cells per ml. After 5 minute incubation on ice, cells were transferred to 4639 cell disruption bomb (Parr Instrument, Moline, Ill.) and applied with 1,500 psi of nitrogen for 30 minutes on ice. Large cellular debris was removed by centrifugation at 1,000×g. Cell membrane in the supernatant was sedimented at 100,000×g. The membrane was resuspended in the lysis buffer supplemented with 10% sucrose and stored at −80° C. Total protein concentration of the membrane was determined by BCA method from Pierce (Rockford, Ill.).
Human CXCR3 (N-delta 4) Scintillation Proximity Assay (SPA):
For each assay point, 2 μg of membrane was preincubated for 1 hr with 300 μg wheat germ agglutinin (WGA) coated SPA beads (Amersham, Arlington Heights, Ill.) in the binding buffer (50 mM HEPES, 1 mM CaCl2, 5 mM MgCl2, 125 mM NaCl, 0.002% NaN3, 1.0% BSA) at room temperature. The beads were spun down, washed once, resuspended in the binding buffer and transferred to a 96-well Isoplate (Wallac, Gaithersburg, Md.). 25 pM of [^125I] IP-10 with tested compounds in a series of titration were added to start the reaction. After 3 hr reaction at room temperature, the amount of [^125I] IP-10 bound to the SPA beads was determined with a Wallac 1450 Microbeta counter.
The Ki ratings for the various compounds of the present invention are given in the afore-mentioned Table 1. From these ratings and value ranges, it would be apparent to the skilled artisan that the compounds of the invention have excellent utility as CXCR3 receptor antagonists.
For orientation: SPA uses beads or plates that emit light when radiolabelled molecules are held near them.
As for `CC[C@H]1CN(c2nc(N)c(C(N)=O)nc2Cl)CCN1C1CCN([C@@H](C(=O)O)c2ccc(Cl)cc2)CC1` [compound 40], the 50% inhibitory concentration (IC50) lay in the range of 25 to 100 nM.
Then `CC[C@H]1CN(c2nc(N)c(C(N)=O)nc2Cl)CCN1C1CCN(Cc2ccc(Cl)cc2CCNC(C)=O)CC1` [compound 41], with 25 to 100 nM; and `CC[C@H]1CN(c2nc(N)c(C(N)=O)nc2Cl)CCN1C1CCN(Cc2ccc(Cl)cc2CC(=O)N(C)C)CC1` [compound 42], with greater than 100 nM.
Then `CC[C@H]1CN(c2nc(N)c(C(N)=O)nc2Cl)CCN1C1CCN(Cc2ccc(Cl)cc2C2NC(=O)NC2=O)CC1` (stereo partly drawn) [compound 43], with greater than 100 nM.
The result for `CC[C@H]1CN(c2nc(N)c(C(N)=O)nc2Cl)CCN1C1CCN(Cc2ccc(Cl)cc2[C@@H](O)C(=O)NC)CC1` [compound 44] reads greater than 100 nM; that for `CC[C@H]1CN(c2nc(N)c(C(N)=O)nc2Cl)CCN1C1CCN([C@@H](C(=O)NC2CC2)c2ccc(Cl)cc2)CC1` [compound 45], greater than 100 nM; that for `CC[C@H]1CN(c2nc(N)c(C(N)=O)nc2Cl)CCN1C1CCN(Cc2ccc(Cl)cc2CC(=O)NCCNS(C)(=O)=O)CC1` [compound 46], greater than 100 nM.
Regarding `CCNC(=O)NCCc1cc(Cl)ccc1CN1CCC(N2CCN(c3nc(N)c(C(N)=O)nc3Cl)C[C@@H]2CC)CC1` [compound 47], the IC50 is greater than 100 nM.
Regarding `CC[C@H]1CN(c2nc(N)c(C(N)=O)nc2Cl)CCN1C1CCN(Cc2ccc(Cl)cc2CC(=O)N2CC[C@H](O)C2)CC1` [compound 48], the IC50 was greater than 100 nM.
The result for `CC[C@H]1CN(c2nc(N)c(C(N)=O)nc2Cl)CCN1C1CCN([C@H](CO)c2ccc(Cl)cc2)CC1` [compound 49] reads greater than 100 nM.
The result for `CC[C@H]1CN(c2nc(N)c(C(N)=O)nc2Cl)CCN1C1CCN([C@@H](C(=O)NC)c2ccc(Cl)cc2)CC1` [compound 50] reads greater than 100 nM.
Then `CC[C@H]1CN(c2nc(N)c(C(N)=O)nc2Cl)CCN1C1CCN(Cc2ccc(Cl)cc2CC(=O)N2CC[C@@H](O)C2)CC1` [compound 51], with greater than 100 nM; and `CC[C@H]1CN(c2nc(N)c(C(N)=O)nc2Cl)CCN1C1CCN(Cc2ccc(Cl)cc2CCn2ccnc2)CC1` [compound 52], with greater than 100 nM.
Take `CCOC(=O)C1CCC(Oc2ccc(CN3CCC(N4CCN(c5nc(N)c(C(N)=O)nc5Cl)C[C@@H]4CC)CC3)cc2)CC1` (stereo partly drawn) [compound 53]: the concentration for half-maximal inhibition (IC50) was greater than 100 nM.
Then `CC[C@H]1CN(c2nc(N)c(C(N)=O)nc2Cl)CCN1C1CCN(Cc2ccc(-n3cncn3)cc2)CC1` [compound 54], with greater than 100 nM.
The result for `CC[C@H]1CN(c2nc(N)c(C(N)=O)nc2Cl)CCN1C1CCN(Cc2ccc(Cl)cc2CC(=O)N2CCOCC2)CC1` [compound 55] reads greater than 100 nM; that for `CC[C@H]1CN(c2nc(N)c(C(N)=O)nc2Cl)CCN1C1CCN([C@@H](C(=O)OC)c2ccc(Cl)cc2)CC1` [compound 56], greater than 100 nM; that for `CC[C@H]1CN(c2nc(N)c(C(N)=O)nc2Cl)CCN1C1CCN([C@@H](C(N)=O)c2ccc(Cl)cc2)CC1` [compound 57], greater than 100 nM.
The result for `CC[C@H]1CN(c2nc(N)c(C(N)=O)nc2Cl)CCN1C1CCN(C(CNS(C)(=O)=O)c2ccc(Cl)cc2)CC1` (stereo partly drawn) [compound 58] reads greater than 100 nM; that for `CC[C@H]1CN(c2nc(N)c(C(N)=O)nc2Cl)CCN1C1CCN(Cc2ccc(C(=O)NC)cc2)CC1` [compound 59], greater than 100 nM; that for `CC[C@H]1CN(c2nc(N)c(C(N)=O)nc2Cl)CCN1C1CCN(Cc2ccc(F)c(F)c2N2CCC[C@H]2C(C)(C)O)CC1` [compound 60], greater than 100 nM.
With `CC[C@H]1CN(c2nc(N)c(C(=O)NC)nc2Cl)CCN1C1CCN(Cc2ccc(Cl)cc2)CC1` [compound 61], the half-maximal inhibitory concentration (IC50) is less than 25 nM.
The result for `CC[C@H]1CN(c2nc(N)c(C(=O)NC)nc2Cl)CCN1C1CCN([C@@H](CO)c2ccc(Cl)cc2)CC1` [compound 62] reads less than 25 nM; that for `CC[C@H]1CN(c2nc(N)c(C(=O)NC)nc2Cl)CCN1C1CCN(C(CO)c2ccc(Cl)cc2)CC1` (stereo partly drawn) [compound 63], less than 25 nM.
As to `CC[C@H]1CN(c2nc(N)c(C(=O)NC)nc2Cl)CCN1C1CCN(Cc2ccc(C#N)cc2)CC1` [compound 64], the half-maximal inhibitory concentration (IC50) is less than 25 nM.
Then `CNC(=O)c1nc(Cl)c(N2CCN(C3CCN(Cc4ccc(Cl)cc4)CC3)[C@@H](C)C2)nc1N` [compound 65], with less than 25 nM; and `CC[C@H]1CN(c2nc(N)c(C(=O)NC)nc2Cl)CCN1C1CCN(Cc2ccc(-n3cccn3)cc2)CC1` [compound 66], with less than 25 nM.
Then `CC[C@H]1CN(c2nc(N)c(C(=O)OC)nc2Cl)CCN1C1CCN(Cc2ccc(Cl)cc2)CC1` [compound 67], with less than 25 nM.
The result for `CNC(=O)c1nc(Cl)c(N2C[C@H](C)N(C3CCN(Cc4ccc(Cl)cc4F)CC3)C[C@H]2C)nc1N` [compound 68] reads less than 25 nM.
`CC[C@H]1CN(c2nc(N)c(C(=O)NC)nc2Cl)CCN1C1CCN([C@@H](C(=O)OC)c2ccc(Cl)cc2)CC1` [compound 69]: the half-maximal inhibitory concentration (IC50) was less than 25 nM.
For the compound `CC[C@H]1CN(c2nc(N)c(C(=O)NC)nc2Cl)CCN1C1CCN([C@@H](C(=O)O)c2ccc(Cl)cc2)CC1` [compound 70], the IC50 was less than 25 nM.
Then `CC[C@H]1CN(c2nc(N)c(C(=O)NC)nc2Cl)CCN1C1CCN([C@@H](C(=O)NC)c2ccc(Cl)cc2)CC1` [compound 71], with 25 to 100 nM; and `CC[C@H]1CN(c2nc(N)c(C(=O)NC)nc2Cl)CCN1C1CCN(CCCCc2ccc(Cl)cc2)CC1` [compound 72], with 25 to 100 nM.
Turning to `CC[C@H]1CN(c2nc(N)c(C(=O)NC)nc2Cl)CCN1C1CCN(CCCC(=O)c2ccc(Cl)cc2)CC1` [compound 73], the IC50 was in the range of 25 to 100 nM.
Consider `CC[C@H]1CN(c2nc(N)c(C(=O)NC)nc2Cl)CCN1C1CCN([C@H](CO)c2ccc(Cl)cc2)CC1` [compound 74], for which the IC50 lay in the range of 25 to 100 nM.
The result for `CC[C@H]1CN(c2nc(N)c(C(=O)NC)nc2Cl)CCN1C1CCN(Cc2ccc(-n3cncn3)cc2)CC1` [compound 75] reads 25 to 100 nM; that for `CC[C@H]1CN(c2nc(N)c(C(=O)NC)nc2Cl)CCN1C1CCN([C@@H](C(N)=O)c2ccc(Cl)cc2)CC1` [compound 76], greater than 100 nM.
`CC[C@H]1CN(c2nc(N)c(C(=O)NC)nc2Cl)CCN1C1CCN([C@H](C(=O)OC)c2ccc(Cl)cc2)CC1` [compound 77]: the IC50 is greater than 100 nM.
Then `CC[C@H]1CN(c2nc(N)c(C(=O)NC)nc2Cl)CCN1C1CCN(CCCOc2ccc(F)cc2)CC1` [compound 78], with greater than 100 nM; and `CC[C@H]1CN(c2nc(N)c(C(=O)NC)nc2Cl)CCN1C1CCN(CCCNC(=O)c2ccc(Cl)cc2)CC1` [compound 79], with greater than 100 nM; and `CC[C@H]1CN(c2nc(N)c(C(=O)NC)nc2Cl)CCN1C1(C)CCN(Cc2ccc(Cl)cc2)CC1` [compound 80], with greater than 100 nM.
The result for `CC[C@H]1CN(c2nc(N)c(C(=O)NC)nc2Cl)CCN1C1(C)CCN(Cc2ccc(Cl)cc2C(=O)NC)CC1` [compound 81] reads greater than 100 nM; that for `CC[C@H]1CN(c2nc(N)c(C(=O)NC3CC3)nc2Cl)CCN1C1CCN(Cc2ccc(Cl)cc2C(N)=O)CC1` [compound 82], less than 25 nM; that for `CC[C@H]1CN(c2nc(N)c(C(=O)NC3CC3)nc2Cl)CCN1C1CCN(Cc2ccc(Cl)cc2F)CC1` [compound 83], less than 25 nM.
Then `CC[C@H]1CN(c2nc(N)c(C(=O)NC3CC3)nc2Cl)CCN1C1CCN(Cc2ccc(Cl)cc2O)CC1` [compound 84], with less than 25 nM.
